Results from ChEMBL document CHEMBL1201862, “PubChem BioAssay data set” (2004).
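48-hour exposure; five concentrations; linearly interpolated endpoints. The concentration for 50% growth inhibition is given as GI50.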 Active and inactive are the calls of the source. No stated cut-off is given here; in the data, active = GI50 up to about 1.1 µM and inactive = higher.

Experiments:
Assay in all cases: growth of human tumour cells (NCI), 48 h
[1] = test system: OVCAR-5
[2] = test system: HOP-62
[3] = test system: UACC-62
[4] = test system: ACHN
[5] = test system: LOX IMVI
[6] = test system: KM-20L2
[7] = test system: SF-539
[8] = test system: CAKI-1
[9] = test system: 786-0
[10] = test system: EKVX
[11] = test system: SN12C
[12] = test system: UACC-257
[13] = test system: HCT-116
[14] = test system: Malme-3M
[15] = test system: CCRF-CEM
[16] = test system: HL-60
[17] = test system: Hs-578T
[18] = test system: MDA-MB-435
[19] = test system: DU-145
[20] = test system: PC-3

Measured: GI50

O=C1/C(=C/c2ccccc2)CCCC/C1=C\c1ccccc1
inactive: [1] 29 µM | [2] > 100 µM | [3] > 100 µM | [4] 78.7 µM | [5] 53.7 µM | [6] 31 µM | [7] > 100 µM | [8] > 100 µM | [9] 65.8 µM | [10] > 100 µM | [11] > 100 µM | [12] 41.2 µM | [13] 40.6 µM | [14] 36.2 µM

c1cc2c(cc1C1OCC3C(c4ccc5c(c4)OCO5)OCC13)OCO2 (centres undefined)
inactive: [1] 55.6 µM | [2] > 100 µM | [3] 50 µM | [4] 80.7 µM | [5] 73.1 µM | [6] 35.8 µM | [7] > 100 µM | [9] > 100 µM | [10] 62.4 µM | [11] 92.3 µM | [12] 53.8 µM | [13] 51.5 µM | [15] 32.3 µM | [14] 61.9 µM

CN(C)CCNC(=O)Cn1ccc(=O)c2ccc([N+](=O)[O-])cc21
inactive: [1] > 100 µM | [2] > 100 µM | [16] > 100 µM | [3] > 100 µM | [17] > 100 µM | [4] > 100 µM | [18] > 100 µM | [5] > 100 µM | [7] > 100 µM | [19] > 100 µM | [8] > 100 µM | [9] > 100 µM | [10] > 100 µM | [20] > 100 µM | [11] > 100 µM | [12] > 100 µM | [13] > 100 µM | [15] > 100 µM | [14] 44.7 µM

COC(=O)c1nn(C(=N)c2ccc(Cl)cc2)c2c1CCC2
inactive: [1] > 100 µM | [2] > 100 µM | [16] > 100 µM | [3] > 100 µM | [4] > 100 µM | [5] > 100 µM | [6] > 100 µM | [7] > 100 µM | [8] > 100 µM | [9] > 100 µM | [11] > 100 µM | [12] > 100 µM | [13] > 100 µM | [15] > 100 µM | [14] > 100 µM

CCCCN(CCCC)C(=O)/C(CC(=O)c1cccc2ccccc12)=N\NC(=O)c1cc2ccccc2cc1O
inactive: [1] 30.3 µM | [2] 20 µM | [16] 3.2 µM | [3] 6.85 µM | [4] 16.9 µM | [5] 13 µM | [6] 22.1 µM | [9] 20.3 µM | [10] 21.6 µM | [11] 18.5 µM | [12] 21.1 µM | [13] 13.1 µM | [15] 3.94 µM | [14] 16.9 µM

O=C1CCCCCCCCCCC(=O)C2CCOCCOCCOCCC1Cc1cccc(n1)C2
inactive: [2] > 100 µM | [3] > 100 µM | [4] 69.8 µM | [5] > 100 µM | [6] > 100 µM | [7] > 100 µM | [8] 41.2 µM | [9] > 100 µM | [10] > 100 µM | [11] 64.9 µM | [12] > 100 µM | [13] 88.7 µM | [15] 59.2 µM | [14] > 100 µM

CCCOc1nc(N)c2cnn(C3CCCCO3)c2n1 (centres undefined)
inactive: [1] > 100 µM | [2] > 100 µM | [16] > 100 µM | [3] > 100 µM | [4] > 100 µM | [6] > 100 µM | [7] > 100 µM | [8] > 100 µM | [9] > 100 µM | [10] > 100 µM | [11] > 100 µM | [12] > 100 µM | [13] > 100 µM | [15] > 100 µM | [14] > 100 µM

S=C(S)NCC1CCC(CNC(=S)S)CC1 (centres undefined)
inactive: [1] > 100 µM | [2] 20.7 µM | [16] 48.9 µM | [3] 34.4 µM | [17] > 100 µM | [4] 20.7 µM | [18] 23.3 µM | [5] 18.8 µM | [7] 38.5 µM | [19] 26 µM | [8] 16.9 µM | [9] 4.63 µM | [10] 62.1 µM | [20] 17.8 µM | [11] 20.6 µM | [12] 26.3 µM | [13] 19.7 µM | [15] 10.7 µM | [14] 22.8 µM

CN(CC1(CO)CCC1)c1cc(Cl)nc(N)n1
inactive: [1] > 100 µM | [2] > 100 µM | [16] > 100 µM | [3] > 100 µM | [17] > 100 µM | [4] > 100 µM | [18] > 100 µM | [5] > 100 µM | [7] > 100 µM | [19] > 100 µM | [8] > 100 µM | [9] > 100 µM | [10] 43.3 µM | [20] > 100 µM | [11] > 100 µM | [12] > 100 µM | [13] > 100 µM | [15] > 100 µM | [14] > 100 µM

O/N=C1/CCCc2nonc21
inactive: [1] > 100 µM | [2] > 100 µM | [16] > 100 µM | [3] > 100 µM | [17] > 100 µM | [4] > 100 µM | [18] > 100 µM | [5] > 100 µM | [7] > 100 µM | [19] > 100 µM | [8] > 100 µM | [9] > 100 µM | [10] > 100 µM | [20] > 100 µM | [11] > 100 µM | [12] > 100 µM | [13] > 100 µM | [15] > 100 µM | [14] > 100 µM

CN(C)C(=S)/N=c1\ss/c(=N\C(=S)N(C)C)n1-c1ccc2c(c1)OCO2
inactive: [1] > 100 µM | [2] > 100 µM | [16] 3.27 µM | [3] 5.56 µM | [4] > 100 µM | [5] > 100 µM | [6] > 100 µM | [7] > 100 µM | [8] > 100 µM | [9] > 100 µM | [10] > 100 µM | [11] > 100 µM | [12] > 100 µM | [13] > 100 µM | [14] > 100 µM

COC(=O)C(CC(=O)c1c[nH]c2ccccc12)c1c[nH]c2ccccc12 (centres undefined)
inactive: [1] 22.2 µM | [2] 21.5 µM | [16] 20.1 µM | [3] > 10 µM | [4] 16.3 µM | [6] 17.9 µM | [7] 19.3 µM | [8] 20 µM | [9] 23.9 µM | [10] 23.4 µM | [12] 15.4 µM | [13] 15.8 µM | [15] 17.9 µM | [14] 19.1 µM

COc1cc2nc(-c3cccs3)nc(Nc3cccc([N+](=O)[O-])c3)c2cc1OC
inactive: [1] 17.8 µM | [2] 18.7 µM | [16] 43.4 µM | [3] 16.8 µM | [17] 26.9 µM | [4] 15.7 µM | [18] 17 µM | [5] 18.4 µM | [7] 18.2 µM | [19] 16.3 µM | [8] 21.9 µM | [9] 21.3 µM | [10] 15.3 µM | [20] 19.6 µM | [11] 17.4 µM | [12] 21.6 µM | [13] 17.8 µM | [15] 31.5 µM | [14] 18.9 µM

CC(C)(C)C(=O)/C=C/c1cccc(Oc2ccccc2)c1
inactive: [1] 18.4 µM | [2] 45 µM | [4] 15.2 µM | [6] 14.3 µM | [7] 20.1 µM | [9] 16.7 µM | [10] 18.7 µM | [11] 13.2 µM | [12] 14 µM | [13] 10.5 µM | [15] 4.08 µM | [14] 18.8 µM

CN(C)CCNC(=O)C(C)(C)Oc1ccc(C(=O)c2ccc(Cl)cc2)cc1Cl
inactive: [1] 15.1 µM | [2] 11.5 µM | [16] 5.26 µM | [3] 2.04 µM | [17] 6.14 µM | [4] 11 µM | [18] 5.6 µM | [5] 7.11 µM | [7] 9.46 µM | [19] 13.2 µM | [8] 13.1 µM | [9] 3.91 µM | [10] 11.2 µM | [20] 11.5 µM | [11] 13.4 µM | [12] 2 µM | [13] 7.4 µM | [15] 33.4 µM | [14] 5.01 µM

NNc1ccccc1Cl
inactive: [1] > 100 µM | [2] > 100 µM | [16] 2.88 µM | [3] 23.4 µM | [17] > 100 µM | [4] > 100 µM | [18] > 100 µM | [5] > 100 µM | [7] > 100 µM | [19] > 100 µM | [8] 30.9 µM | [9] > 100 µM | [10] > 100 µM | [20] 69.2 µM | [11] > 100 µM | [12] > 100 µM | [13] > 100 µM | [15] 43.1 µM | [14] > 100 µM

COC1[C@@H](OC(C)=O)[C@@H](NC(=O)C(Cl)(Cl)Cl)C(I)[C@@H](N2C(=O)c3ccccc3C2=O)[C@H]1OC (some centres undefined)
inactive: [1] > 100 µM | [2] > 100 µM | [16] > 100 µM | [3] > 100 µM | [4] > 100 µM | [5] > 100 µM | [6] > 100 µM | [7] 50.2 µM | [9] > 100 µM | [10] > 100 µM | [11] > 100 µM | [12] > 100 µM | [13] > 100 µM | [15] > 100 µM
